Assay [1] concerns primary human corneal endothelial cells (HCEnCs). Kind of assay: Phase-contrast morphology of primary HCEnCs cultures treated with CHIR. Type of assay: cell-based. The protocol:
Human corneas tissues (obtained after informed consent to the eye bank and the use was approved by the ethical committee) were preserved in media for tissue preservation as for example Eusol, OptiSOL or others and used within approximately 15 days from death; a list of detail for some corneas used and relative experiments is shown in Table 1. HCEnCs were isolated through Descemet's stripping and digestion with Collagenase A (Roche) for 1-16 h at 30-39° C. After 5-10 minutes in Trypsin or other proteolytic enzymes at 37° C., HCEnCs were pelleted at 1,200 rpm for 3 min and plated in FNC Coating mix treated wells.
(§1) HCEnCs were cultured between 31 and 39° C. in 4-10% CO2, changing the growth medium every other day. The growth medium can be OptiMEM-I, MEM, F12, Human Endothelial SFM, 2-10% HyClone fetal bovine serum (FBS), 2-10 ng/ml epidermal growth factor (EGF), 5-50 μg/mL ascorbic acid, 40-300 mg/L calcium chloride, 0.01-0.2% chondroitin sulphate, and penicillin/streptomycin. Upon confluency, HCEnCs were rinsed in DPBS and passaged at a ratio of 1:2 or 1:3 with Trypsin or other proteolytic enzymes for 10-30 min at 31-39° C. in 4-10% CO2. Sub-confluent cultures were harvested approximately 1 day after plating.
(§2) Before or whenever primary HCEnCs encountered a morphological variation, the GSK inhibitor CHIR99021 (also defined as 6-[[2-[[4-(2,4-Dichlorophenyl)-5-(5-methyl-1H-imidazol-2-yl)-2-pyrimidinyl]amino]ethyl]amino]-3-pyridinecarbonitrile) was prepared and added to the culture media at a concentration range of 0.1-10 μM. Multiple solvents and methods have been used to dissolve CHIR stock solution. Ultrasonic were applied for CHIR dilutions in sodium carboxymethyl cellulose (CMC-Na) in saline water and 20% Sulfobutylether-β-Cyclodextrin (SBE-β-CD), adjusted to pH 3-6, with 1 N acetic acid. CHIR can be also diluted in dimethyl sulfoxide (DMSO) at 70-100% (v/v), with a solution composed of 10% DMSO 40% PEG300 5% Tween-80 in saline water or composed of 10% DMSO and 20% SBE-β-CD in saline water. Once obtained a clear solution, the stock solution was aliquoted and stored at-20/−80° C. until use.

Assay [2] shares this test system. Kind of assay: Immunofluorescence of ZO-1 and α-SMA markers in primary HCEnCs. The class given is cell-based. The protocol:
as §1, §2
(§3) Immunofluorescence staining was performed on primary cultured HCEnCs after fixation in 3% PFA 15 min at room temperature (RT). Triton X-100 used at 1% for 10 min at RT allowed cell permeabilization and a solution of bovine serum albumin (BSA) 2%, FBS 2%, Triton X-100 at 0.01% in PBS was used for 30 min at 37° C. to block the non-specific binding sites. Primary and secondary antibodies were incubated for 1 h at 37° C. while nuclei were counterstained with DAPI at RT for 5 minutes before mounting the glass coverslips using amounting medium such as DAKO. Primary antibodies used herein are listed in Table 2 while secondary antibodies used are: Alexa Fluor 488 anti-rabbit, 1:2,000, and Alexa Fluor 568 anti-mouse, 1:1,000 (Thermo Fisher Scientific). Images were obtained with a confocal microscope (LSM900 Airyscan—Carl Zeiss).

Assay [3] has the same test system. Put plainly: Cell cycle analysis by FACS (propidium iodide) of sub-confluent HCEnCs. The class given is cell-based. The settings on record: sub-confluent HCEnCs P5-P6-P8, CHIR 0.1-9 μM vs untreated. The protocol:
The cell cycle was studied by staining sub-confluent cultures of […] with Propidium Iodide (PI; Sigma-Aldrich). […] from cell culture were washed with DPBS and incubated for 1 h at 4° C. in the dark with 250 μL of a PBS solution composed by PI 50 μg/mL, Triton X-100 (Bio-Rad, USA) at 0.1%. Cells were then analysed using BD FACSCanto II (BD BIOSCIENCES; San Jose, CA USA). For each sample, 20,000 events were considered for the analysis to ensure statistical relevance and results were analysed with a ModFit 3.0 software.
For orientation: A flow cytometer gives signals particle by particle.

Assay [4] shares this test system. Kind of assay: HCEnCs count upon detachment at confluency for progressive passages. The class given is cell-based. The settings on record: CHIR 0.1-9 μM vs relative untreated control. The procedure:
[…] were cultured between 31 and 39° C. in 4-10% CO2, changing the growth medium every other day. The growth medium can be OptiMEM-I, MEM, F12, Human Endothelial SFM, 2-10% HyClone fetal bovine serum (FBS), 2-10 ng/ml epidermal growth factor (EGF), 5-50 μg/mL ascorbic acid, 40-300 mg/L calcium chloride, 0.01-0.2% chondroitin sulphate, and penicillin/streptomycin. Upon confluency, […] were rinsed in DPBS and passaged at a ratio of 1:2 or 1:3 with Trypsin or other proteolytic enzymes for 10-30 min at 31-39° C. in 4-10% CO2. Sub-confluent cultures were harvested approximately 1 day after plating.

Assay [5] shares this test system. Kind of assay: Immunofluorescence of ki67 in sub-confluent HCEnCs. Type of assay: cell-based. The protocol:
as §3, with “HCEnCs” left out, “Airyscan-Carl” for “Airyscan—Carl”

Assay [6] concerns corneal endothelial derived cell line, B4G12. The conditions noted are these: B4G12 cell line (Wang et al., 2022); cited from earlier work.
Where [7] appears, read: P1, CHIR at 0.1-9 μM, vs untreated (ctr).
The mark [8] stands for this setting: P1, CHIR at a concentration >10 μM.

Consider `Cc1cnc(-c2cnc(NCCNc3ccc(C#N)cn3)nc2-c2ccc(Cl)cc2Cl)[nH]1` [CHIR, 6-[[2-[[4-(2,4-Dichlorophenyl)-5-(5-methyl-1H-imidazol-2-yl)-2-pyrimidinyl]amino]ethyl]amino]-3-pyridinecarbonitrile], for which the “reversion of elongated morphology” value in assay [1] (CHIR 0.1-9 μM added at a later passage, P6 confluence) is “able to reverse the elongated morphology”. The “reversion of cell phenotype / morphology” value in assay [1] (CHIR 0.1-9 μM applied to HCEnCs already elongated in culture (P3)) is recorded as “restoring a polygonal morphology”. The “reversion of elongated phenotype” value in assay [1] (CHIR 0.1-9 μM, progressive passages, at least up to P8) was “reversing the elongated phenotype”. Also, the HCEnCs morphology entry was “restored the polygonal morphology” in assay [1] (P1, CHIR at 0.1-9 μM, vs untreated HCEnCs (ctr)); “exacerbated elongated morphology” in assay [1] (P1, CHIR at concentrations >10 μM, vs untreated cells); “untreated cells (ctr) appeared more elongated than CHIR treated HCEnCs” in assay [1] (P3, CHIR 0.1-9 μM vs untreated (ctr)). Also, the “percentage of α-SMA expressing cells” value in assay [2] (P1, CHIR 0.1-9 μM, untreated approx. 40%) is listed as around 17%. Besides, the ZO-1 expression entry is on record as “restored sealed ZO-1 pattern of expression” in assay [2] (setting [7]); “disappearance of ZO-1 expression” in assay [2] (setting [8]); “restores ZO-1 pattern of tight junctions” in assay [2] (P3, CHIR 0.1-9 μM). The α-SMA expression result was “reduced levels of α-SMA” in assay [2] (setting [7]); “highly expressed in every cell” in assay [2] (setting [8]); “drastically reduces expression of α-SMA” in assay [2] (P3, CHIR 0.1-9 μM). Further, in assay [2] (setting [8]), the “endothelial to mesenchymal transition (EnMT)” value is reported as “accelerated the process of endothelial to mesenchymal transition”. Moreover, in assay [3], the “percentage of cells at G2/M” value is reported as “reduced the percentage of cells at G2/M”. Besides, the “percentage of cells in G0/G1 phase of cell cycle” value in assay [3] is reported as “enhanced the percentage of cells in G0/G1 phase”. For the same molecule, the “number of HCEnCs at confluency for each passage” value in assay [4] is given as “constantly lower”. For the same molecule, the cell proliferation rate result in assay [5] (primary HCEnCs, evaluated with different assays (FACS, count, ki67)) is on record as “does not enhance cell proliferation rate”. Moreover, the “ki67 protein expressing cells” value in assay [5] (sub-confluent HCEnCs P5, Strain 3, CHIR 0.1-9 μM vs untreated) is “equal”; in assay [5] (sub-confluent HCEnCs P5, Strain 4, p<0.05, CHIR 0.1-9 μM vs untreated) it was “significant reduction”. Further, the cell proliferation result in assay [6] was “concomitant enhancement in cell proliferation”. In addition, the mesenchymal conversion result in assay [6] is on record as “prevent mesenchymal conversion (but not to reverse it)”.

The values above are taken from US20260117173A1, “METHOD FOR MESENCHYMAL PHENOTYPE REVERSION IN PRIMARY HUMAN CORNEAL ENDOTHELIAL CELLS” (UNIVERSITÀ DEGLI STUDI DI MODENA E REGGIO EMILIA, priority 2022, published 2026).
